Assays:
Coprococcus [1] = assay: In vitro intestinal batch fermentation with human fecal suspension; 16S rRNA Illumina sequencing; type: cell-based; conditions: fermentation supernatant at 24 h, versus control
Protocol: At the start of this intestinal batch fermentation incubation, all test ingredients were added from stock solutions to the modified nutritional medium, containing (g/l): 2.5 K2HPO4, 10.9 KH2PO4, 2 NaHCO3, 2 yeast extract, 2 peptone, 1 mucin, 0.5 cysteine, 2 Tween 80, 2 glucose, 2 starch, 2 cellobiose, 0.1 NaCl, 0.01 MgSO4.7H2O, 0.01 CaCl2.6H2O, 0.05 hemin, 0.5 bile salts.
The following compounds were added from stock solutions prepared in water: • Beta-carotene, • Vitamin B3, • Vitamin B5, • Vitamin B7, • Fructooligosaccharides Fructooligosaccharides are included as a positive control.
As a source of the microbial community, freshly prepared fecal suspension from a human donor was added to the reactors. […] All tests, except the blanks, were performed in single repetition. Incubation conditions were 48 h at 37° C., under shaking (90 rpm) and anaerobic conditions.
Microbial composition: Illumina sequencing was performed at the start and after 24 h of incubation. The technique targets the16S rRNA gene that consists of variable and conserved regions, spread over the gene. Due to their key role in protein expression, the conserved regions are characterized by very low evolutionary rates.
The methodology applied involves primers that span 2 hypervariable regions (V3-V4) of the 16S rRNA gene. Using a pair-end sequencing approach, sequencing of 2×250 bp results in 424 bp amplicons. Such fragments are taxonomically more informative as compared to smaller fragments. In brief, mothur (v. 1.42.0) was used to assemble reads into contigs, perform alignment-based quality filtering (alignment to the mothur-reconstructed SILVA SEED alignment, v. 123), remove chimeras, assign taxonomy using a naïve Bayesian classifier and SILVA NR v132 and cluster contigs into OTUs. All sequences classified as Eukaryota, Archaea, Chloroplasts and Mitochondria were removed, as well as sequences that could not be classified. For each OTU, representative sequences were selected as the most abundant sequence within that OTU.

Coprococcus [2] = assay: Clinical study of colon-targeted vitamins; fecal relative abundance of Coprococcus by shotgun metagenomics; type: in vivo; conditions: human feces, colon-targeted delivery for four weeks, compared to baseline
Text: Twelve participants were allocated to each of the six vitamin groups, and 24 participants allocated to the placebo group. […] To be considered eligible for enrolment into the study, participants have to be able to give written informed consent; be aged between 20 and 50 years of age; have a BMI of between 18.5 - 30 Kg/m2; have a stable body weight (< 5% change) over the past 3-months; be in generally good health, as determined by the investigator; have not consumed dietary supplements, prebiotic, probiotic, dietary or fiber-rich supplements within 4 weeks prior to baseline visit and be willing to avoid these supplements until the end of the study; be willing to avoid liver consumption for the duration for the study, be willing to maintain their current level of physical activity for the duration of the study; and be willing to consume the IP daily for the duration of the study. Any participants who have a typical fiber intake >30 g/day; were pregnant or planning to become pregnant, have consumed disallowed medications; had made major dietary changes over the past three months or had planned major lifestyle changes; had taken part in a study within the previous 60 days; or had any ongoing or previous illness that the investigator deemed would impact on the objectives of the study were excluded. […] Each subject provided written informed consent before inclusion in the study.
At the final visit (Visit 3) participants retuned a fecal samples collected in the previous 48 hours. […] Participants returned their IP and compliance was assessed. […]

Coprococcus comes = assay: Clinical study of colon-targeted vitamins; fecal relative abundance of Coprococcus comes by shotgun metagenomics; type: in vivo; conditions: human feces, colon-targeted delivery for four weeks
Text: Twelve participants were allocated to each of the six vitamin groups, and 24 participants allocated to the placebo group. All 96 participants completed the intervention. To be considered eligible for enrolment into the study, participants have to be able to give written informed consent; be aged between 20 and 50 years of age; have a BMI of between 18.5 - 30 Kg/m2; have a stable body weight (< 5% change) over the past 3-months; be in generally good health, as determined by the investigator; have not consumed dietary supplements, prebiotic, probiotic, dietary or fiber-rich supplements within 4 weeks prior to baseline visit and be willing to avoid these supplements until the end of the study; be willing to avoid liver consumption for the duration for the study, be willing to maintain their current level of physical activity for the duration of the study; and be willing to consume the IP daily for the duration of the study. […]
The trial was a randomized, double-blind, placebo-controlled, parallel study in which subjects received either the vitamin supplement or placebo over four weeks. […] Before the randomization visit, participants food frequency questionnaires were analyzed to ensure their typical fiber intake is <30 g fiber/day. […]
At the baseline visit (Visit 2), participants retuned a fecal samples collected in the previous 48 hours and eligibility was assessed. […]

## CC1=C(/C=C/C(C)=C/C=C/C(C)=C/C=C/C=C(C)/C=C/C=C(C)/C=C/C2=C(C)CCCC2(C)C)C(C)(C)CCC1 [beta-carotene, β-carotene]
Coprococcus [1]; dose 1x
  Coprococcus relative abundance: increased
Coprococcus [1]; dose 5x
  Coprococcus relative abundance: increased

## NC(=O)c1cccnc1 [vitamin B3, Niacinamide]
Coprococcus [1]; doses 0.2x, 1x, 5x tested
  Coprococcus relative abundance: no distinct increase

## CC(C)(CO)[C@@H](O)C(=O)NCCC(=O)O [vitamin B5, Pantothenic acid]
Coprococcus [1]; dose 0.2x
  Coprococcus relative abundance: increased
Coprococcus [1]; dose 5x
  Coprococcus relative abundance: increased

## O=C(O)CCCC[C@@H]1SC[C@@H]2NC(=O)N[C@@H]21 [vitamin B7, Biotin]
Coprococcus [1]; doses 0.2x, 1x, 5x tested
  Coprococcus relative abundance: no distinct increase

## O=C1O[C@H]([C@@H](O)CO)C(O)=C1O [vitamin C, ascorbic acid]
Coprococcus [2]
  relative abundance of Coprococcus: not

## C=C1CC[C@H](O)C/C1=C/C=C1\CCC[C@]2(C)[C@@H]([C@H](C)CCCC(C)C)CC[C@@H]12 [vitamin D3, cholecalciferol]
Coprococcus [2]
  relative abundance of Coprococcus: trends for an increase
Coprococcus comes; compared to baseline (p = 0.04)
  Coprococcus comes relative abundance: significant increase
Coprococcus comes; compared to placebo group (p = 0.028)
  Coprococcus comes relative abundance: significant increase

## vitamin A
Coprococcus [2]
  relative abundance of Coprococcus: trends for an increase
